Assays:
KRAS (G12D)::SOS1 = KRAS (G12D)::SOS1 (Homo sapiens (Human), UniProt P01116, G12D); test: KRAS::SOS1 AlphaScreen binding assay, KRAS G12D
Method in brief: (§1)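 KRAS 1-169 (biotinylated avi-tag) with GST-SOS1 564-1049 and 10 µM GDP in PBS/0.1% BSA/0.05% Tween 20: WT and G13D 10 nM each with 10 nM SOS1; G12D 10 nM and G12C 7.5 nM with 5 nM SOS1. After 30 min, glutathione acceptor/streptavidin donor beads were added for 60 min at RT in the dark, then AlphaScreen read; 4-parameter IC50.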

KRAS (G12C)::SOS1 = KRAS (G12C)::SOS1 (Homo sapiens (Human), UniProt P01116, C118S/C51S/C80L/G12C); test: KRAS::SOS1 AlphaScreen binding assay, KRAS G12C
Method in brief: as §1

[1] = system: KRAS G12V-dependent Ba/F3 cells; test: Ba/F3 proliferation assay, KRAS G12V; assay type: cell-based; details: AlamarBlue;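 also: proliferation IC50 in KRAS G12V-dependent Ba/F3 cells read by AlamarBlue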
Method in brief: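 Ba/F3 cells were retrovirally transduced with KRAS G12 mutant vectors, puromycin-selected (1 μg/mL) and grown without IL-3 to make them KRAS-dependent. Compounds were tested in technical duplicates, viability was read by AlamarBlue fluorescence, and values came from curve fitting.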

SAS cells = test: SAS CTG proliferation assay (120 h) (HNSCC, wt amplified); assay type: cell-based
Method in brief: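 SAS cells plated at 300 per well in DMEM:F12 with 10% FCS and left overnight, then given compounds acoustically. After 120 h exposure, viability read by CellTiter-Glo as percent of DMSO control. IC50 from four-parameter non-linear regression.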

Chain of KRAS (G12D)::SOS1 (P01116 other isoform, or with tags, fused parts or gaps G12D): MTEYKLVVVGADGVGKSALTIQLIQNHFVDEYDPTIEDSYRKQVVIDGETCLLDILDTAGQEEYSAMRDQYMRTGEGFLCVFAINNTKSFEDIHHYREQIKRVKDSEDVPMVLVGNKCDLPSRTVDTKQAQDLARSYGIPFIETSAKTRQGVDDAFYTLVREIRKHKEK
Chain of KRAS (G12C)::SOS1 (P01116 other isoform, or with tags, fused parts or gaps G12C/C51S/C80L/C118S): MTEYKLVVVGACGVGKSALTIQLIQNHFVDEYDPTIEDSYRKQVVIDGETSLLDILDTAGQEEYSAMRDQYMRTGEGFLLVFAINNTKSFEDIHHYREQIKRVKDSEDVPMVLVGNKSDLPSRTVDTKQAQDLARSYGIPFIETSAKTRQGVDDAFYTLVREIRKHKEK

Structure (SMILES)	IC50 (KRAS (G12D)::SOS1) [nM]	IC50 (KRAS (G12C)::SOS1) [nM]	IC50 ([1]; Mus musculus, BaF3, 72 h) [nM]	IC50 (SAS cells) [nM]	IC50 ([1]; 72 h) [nM]
C[C@H](Oc1cc(N2CC(N(C)C)C2)nc(-c2noc3c2CCC[C@@]32CCCc3sc(N)c(C#N)c32)n1)[C@@H]1CCCN1C [II-7]	1	5	196	1190	–
C[C@H](Oc1cc(N2CCN(C)C3(CCC3)C2)nc(-c2onc3c2CCC[C@@]32CCCc3sc(N)c(C#N)c32)n1)[C@@H]1CCCN1C [I-44]	2	13	1050	1200	–
C[C@H](Oc1nc(-c2onc3c2CCC[C@@]32CCCc3sc(N)c(C#N)c32)cc(N2CCN(C)C3(CC3)C2)n1)[C@@H]1CCCN1C [I-40]	6	88	–	–	–
C[C@H](Oc1cc(N2CCN(C)CC2)nc(-c2noc3c2CCC[C@@]32CCCc3sc(N)c(C#N)c32)n1)[C@@H]1CCCN1[C@@H]1CCOC1 [II-39]	1	6	–	2940	–
C[C@H](Oc1cc(N2CC[C@H](N(C)C)C2)nc(-c2noc3c2CCC[C@@]32CCCc3sc(N)c(C#N)c32)n1)[C@@H]1C[C@@H](F)CN1C [II-15]	1	7	340	1300	–
CN[C@H]1CCN(c2cc(O[C@@H](C)[C@@H]3CCCN3C)nc(-c3noc4c3CCC[C@@]43CCCc4sc(N)c(C#N)c43)n2)C1 [II-35]	2	7	1680	4730	–
C[C@H](Oc1nc(-c2onc3c2CCC[C@@]32CCCc3sc(N)c(C#N)c32)cc(N2CCNC3(CC3)C2)n1)[C@@H]1CCCN1C [I-2]	2	45	–	–	–
C[C@H](Oc1cc(-c2ccn(C)n2)nc(-c2onc3c2CCC[C@@]32CCCc3sc(N)c(C#N)c32)n1)[C@@H]1CCCN1C [I-21]	4	2	–	40	6
C[C@H](Oc1cc(N2CC[C@H](N3CCCCC3)C2)nc(-c2noc3c2CCC[C@@]32CCCc3sc(N)c(C#N)c32)n1)[C@@H]1CCCN1C [II-12]	1	8	549	1920	–
C[C@H]1CN(C)CCCN1c1nc(-c2onc3c2CCC[C@@]32CCCc3sc(N)c(C#N)c32)cc(N2CCN(C)C3(CC3)C2)n1 [I-42]	35	606	–	–	–
C[C@H]1CN(C)CCCN1c1cc(N2CCN(C)CC2)nc(-c2noc3c2CCC[C@@]32CCCc3sc(N)c(C#N)c32)n1 [II-30]	4	19	–	10600	–
C[C@H](Oc1nc(-c2noc3c2CCC[C@@]32CCCc3sc(N)c(C#N)c32)cc(N2C[C@H](C)N[C@@H](C)C2)n1)[C@@H]1CCCN1C [II-46]	1	37	–	399	–
C[C@H](Oc1cc(-n2ccsc2=O)nc(-c2noc3c2CCC[C@@]32CCCc3sc(N)c(C#N)c32)n1)[C@@H]1CCCN1C [II-135]	–	–	4	69	–

The next lines start with results.

IC50 (KRAS (G12D)::SOS1) [nM]	IC50 (KRAS (G12C)::SOS1) [nM]	IC50 ([1]; Mus musculus, BaF3, 72 h) [nM]	Structure (SMILES)	IC50 (SAS cells) [nM]	IC50 ([1]; 72 h) [nM]
1	4	164	C[C@H](Oc1cc(N2CC[C@@H](N(C)C)C2)nc(-c2noc3c2CCC[C@@]32CCCc3sc(N)c(C#N)c32)n1)[C@@H]1CCCN1C [II-47]	2620	–
2	2	3	C[C@H](Oc1cc(-n2ccc(C(N)=O)n2)nc(-c2noc3c2CCC[C@@]32CCCc3sc(N)c(C#N)c32)n1)[C@@H]1CCCN1C [II-21]	35	–
1	1	1	CO[C@H]1CCN(C)[C@@H]1[C@H](C)Oc1cc(-n2ccc(C(=O)N[C@H]3CCOC3)n2)nc(-c2onc3c2CCC[C@@]32CCCc3sc(N)c(C#N)c32)n1 [I-54]	17	–
2	2	10	C[C@H](Oc1cc(-n2ccnc2)nc(-c2onc3c2CCC[C@@]32CCCc3sc(N)c(C#N)c32)n1)[C@@H]1CCCN1C [I-20]	35	–
1	2	4	CO[C@H]1CCN(C)[C@@H]1[C@H](C)Oc1cc(-n2ccc(CC(=O)NC(C)C)n2)nc(-c2onc3c2CCC[C@@]32CCCc3sc(N)c(C#N)c32)n1 [I-48]	13	–
1	2	9	C[C@H](Oc1cc([C@@H]2CCOC2)nc(-c2onc3c2CCC[C@@]32CCCc3sc(N)c(C#N)c32)n1)[C@@H]1CCCN1C [I-22]	33	–
2	1	4	CCOC(=O)c1ccn(-c2cc(O[C@@H](C)[C@@H]3CCCN3C)nc(-c3noc4c3CCC[C@@]43CCCc4sc(N)c(C#N)c43)n2)n1 [II-23]	222	–
1	2	1340	C[C@H](Oc1cc(N2CCN(C)C3(COC3)C2)nc(-c2onc3c2CCC[C@@]32CCCc3sc(N)c(C#N)c32)n1)[C@@H]1C[C@@H](F)CN1C [I-37]	412	–
1	1	4	C[C@H](Oc1cc(-n2ccc(C(=O)N(C)C3COC3)n2)nc(-c2onc3c2CCC[C@@]32CCCc3sc(N)c(C#N)c32)n1)[C@@H]1CCCN1C [I-60]	40	–
8	2	16	C[C@H](Oc1cc(-c2ccn(C)n2)nc(-c2noc3c2CCC[C@@]32CCCc3sc(N)c(C#N)c32)n1)[C@@H]1C[C@@H](F)CN1C [II-27]	151	–
2	3	422	C[C@@H]1CN(c2cc(O[C@@H](C)[C@@H]3C[C@@H](F)CN3C)nc(-c3noc4c3CCC[C@@]43CCCc4sc(N)c(C#N)c43)n2)CC2(CC2)N1 [II-17]	1030	–
10	3	41	Cc1ccc(-c2cc(O[C@@H](C)[C@@H]3CCCN3C)nc(-c3onc4c3CCC[C@@]43CCCc4sc(N)c(C#N)c43)n2)cn1 [I-28]	934	–
3	2	43	C[C@H](Oc1cc(Cl)nc(-c2onc3c2CCC[C@@]32CCCc3sc(N)c(C#N)c32)n1)[C@@H]1CCCN1C [I-1]	2880	–
1	2	390	C[C@@H]1CN(c2cc(O[C@@H](C)[C@@H]3CCCN3C)nc(-c3noc4c3CCC[C@@]43CCCc4sc(N)c(C#N)c43)n2)C[C@H](C)N1 [II-36]	179	–
1	2	134	C[C@H](Oc1cc(N2CCNC3(COC3)C2)nc(-c2onc3c2CCC[C@@]32CCCc3sc(N)c(C#N)c32)n1)[C@@H]1CCCN1C [I-4]	395	–
–	4	389	[2H]C([2H])([2H])N1C[C@H](F)C[C@H]1[C@H](C)Oc1cc(N2CCN(C)C3(CC3)C2)nc(-c2noc3c2CCC[C@@]32CCCc3sc(N)c(C#N)c32)n1 [II-209]	737	–
–	1	166	[2H]C([2H])([2H])N1C[C@H](F)C[C@H]1[C@H](C)Oc1cc(N2CCNC3(CC3)C2)nc(-c2noc3c2CCC[C@@]32CCCc3sc(N)c(C#N)c32)n1 [II-208]	718	–
2	2	1	C[C@H](Oc1cc(-n2ccc(C(=O)N[C@H]3CCOC3)n2)nc(-c2onc3c2CCC[C@@]32CCCc3sc(N)c(C#N)c32)n1)[C@@H]1CCCN1C [I-57]	–	–

— US20240174690A1, “ANNULATED 2-AMINO-3-CYANO THIOPHENES AND DERIVATIVES FOR THE TREATMENT OF CANCER” (BOEHRINGER INGELHEIM INTERNATIONAL GMBH, priority 2021, published 2024)
